Test [1] concerns the target T1, Vasoactive intestinal polypeptide receptor 2 (Homo sapiens) (UniProt P41587).
T1 sequence (whole entry): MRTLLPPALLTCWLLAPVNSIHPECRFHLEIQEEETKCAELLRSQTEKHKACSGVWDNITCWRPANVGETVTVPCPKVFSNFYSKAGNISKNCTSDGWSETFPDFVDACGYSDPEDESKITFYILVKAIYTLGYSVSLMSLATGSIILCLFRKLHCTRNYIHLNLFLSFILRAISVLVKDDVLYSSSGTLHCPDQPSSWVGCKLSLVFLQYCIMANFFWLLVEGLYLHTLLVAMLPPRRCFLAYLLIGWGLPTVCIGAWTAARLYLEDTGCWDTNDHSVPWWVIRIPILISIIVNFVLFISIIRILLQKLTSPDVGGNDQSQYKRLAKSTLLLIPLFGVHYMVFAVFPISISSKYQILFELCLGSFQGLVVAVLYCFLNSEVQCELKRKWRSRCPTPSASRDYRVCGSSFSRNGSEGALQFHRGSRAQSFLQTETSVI
The experiment in a line: Antagonist activity at recombinant human N-terminal signal peptide/FLAG epitope-tagged Rluc8-fused VIPR2 expressed in HEK293 cells assessed as inhibition of VIP-induced human mVenus-beta-arrestin2 binding at 1 uM preincubated for 5 mins with luciferin, coelenterazine H followed by VIP addition measured after 5 mins by BRET assay relative to control. Type of test: cell-based.

For test [2], the target named is T1, Vasoactive intestinal polypeptide receptor 2 (Homo sapiens). In words: Antagonist activity at recombinant human N-terminal signal peptide/FLAG epitope-tagged Rluc8-fused VIPR2 expressed in HEK293 cells assessed as inhibition of VIP-induced human mVenus-beta-arrestin2 binding at 5 uM preincubated for 5 mins with luciferin, coelenterazine H followed by VIP addition measured after 5 mins by BRET assay relative to control. Type of test: cell-based. A general note: BRET reads energy transfer from a luciferase to a nearby fluorophore.

Test [3] shares this target. The experiment in a line: Antagonist activity at recombinant human N-terminal signal peptide/FLAG epitope-tagged Rluc8-fused VIPR2 expressed in HEK293 cells assessed as inhibition of VIP-induced human mVenus-beta-arrestin2 binding at 0.5 uM preincubated for 5 mins with luciferin, coelenterazine H followed by VIP addition measured after 5 mins by BRET assay relative to control. The format is cell-based.

For test [4] the target is unchanged. The experiment in a line: Antagonist activity at recombinant human N-terminal signal peptide/FLAG epitope-tagged VIPR2 expressed in HEK293 cells co-expressing CAMYEL assessed as inhibition of VIP-induced cAMP accumulation at 5 uM preincubated for 5 mins with luciferin, coelenterazine H followed by VIP addition measured after 5 mins by BRET assay relative to control. Type of test: functional, cell-based.

For test [5] the target is unchanged. In words: Antagonist activity at recombinant human N-terminal signal peptide/FLAG epitope-tagged VIPR2 expressed in HEK293 cells co-expressing CAMYEL assessed as inhibition of VIP-induced cAMP accumulation at 1 uM preincubated for 5 mins with luciferin, coelenterazine H followed by VIP addition measured after 5 mins by BRET assay relative to control. Type of test: functional, cell-based. Background: cAMP levels reflect the balance of adenylyl cyclase and phosphodiesterase activity.

Test [6] has the same target. The experiment in a line: Antagonist activity at recombinant human N-terminal signal peptide/FLAG epitope-tagged VIPR2 expressed in HEK293 cells co-expressing CAMYEL assessed as inhibition of VIP-induced cAMP accumulation at 0.5 uM preincubated for 5 mins with luciferin, coelenterazine H followed by VIP addition measured after 5 mins by BRET assay relative to control. Type of test: functional, cell-based.

The structures appear in SMILES notation.

26 compounds from ChEMBL document CHEMBL3879914, “Inhibitors of central nervous system vasoactive inhibitory peptide receptor 2” (2014) can be followed below.

For `O=C(CCCCl)NC[C@@H](O)C[C@@H](Cc1ccccc1)C(=O)N[C@H]1c2ccccc2C[C@H]1O`, the inhibition (usually the drop in the measured response relative to a control, in per cent) is 24.3% in test [1]; 21.1% in test [2]; 18.5 to 19.2% in test [3]; 15.9% in test [4]; 18.2% in test [5]; 16.4% in test [6].

For `CC1CCC(NC(=O)[C@H](Cc2ccccc2)C[C@H](O)CNS(=O)(=O)c2ccc([N+](=O)[O-])cc2)CC1` (some centres not stated), the inhibition was -1.3% in test [1]; 0.4% in test [2]; -1.2 to 13.4% in test [3]; -2.8% in test [4]; -2.5% in test [5]; -5% in test [6].

On to `O=C(NC[C@@H](O)C[C@@H](Cc1ccccc1)C(=O)N[C@H]1c2ccccc2C[C@H]1O)C1CC1`, for which the inhibition in test [1] was 37%; in test [2] it was 29.1%; in test [3], -3.8 to 26.6%; in test [4] it was 24%; in test [5], 21.1%; in test [6] it was 21%.

For the compound `CO[C@@H]1Cc2ccccc2[C@@H]1NC(=O)[C@H](Cc1ccccc1)C[C@H](O)CN(C)S(=O)(=O)c1ccc([N+](=O)[O-])cc1`, the inhibition in test [3] was 4.9 to 6.9%; in test [4] it was 26%; in test [5] it was 11.3%; in test [6], 21.1%.

As to `O=C(CCl)NC[C@@H](O)C[C@@H](Cc1ccccc1)C(=O)N[C@H]1c2ccccc2C[C@H]1O`, the inhibition in test [1] was 23.7%; in test [2] it was 17.5%; in test [3], 9.9 to 16.6%; in test [4], 15.6%; in test [5], 19.2%; in test [6], 18.4%.

Regarding `CC(C)C(=O)Nc1ccc(S(=O)(=O)NC[C@@H](O)C[C@@H](Cc2ccccc2)C(=O)N[C@H]2c3ccccc3C[C@H]2O)cc1`, the inhibition in test [1] was 5.1%; in test [2], -7.5%; in test [3], 4.6 to 5.3%; in test [4], 16.7%; in test [5] it was 6.9%; in test [6], 1%.

With `O=C(NCCc1cccc(Cl)c1)[C@@H](Cc1ccccc1)C[C@H](O)CNS(=O)(=O)c1ccc([N+](=O)[O-])cc1`, the inhibition in test [1] is 23.4%; in test [2] it was 14.7%; in test [3] it was 11.1 to 13.8%; in test [4] it was 13%; in test [5], 10.7%; in test [6], 9.3%.

Regarding `O=C(NC1CCCCCC1)[C@H](Cc1ccccc1)C[C@H](O)CNS(=O)(=O)c1ccc([N+](=O)[O-])cc1`, the inhibition in test [1] was -5.4%; in test [2], -2.4%; in test [4], 12.9%; in test [5], 5.6%; in test [6], 1.7%.

As for `O=C(NC[C@@H](O)C[C@@H](Cc1ccccc1)C(=O)N[C@H]1c2ccccc2C[C@H]1O)c1c(Cl)cc(Cl)cc1Cl`, the inhibition in test [1] is 25.3%; in test [2], 31.5%; in test [3], 21.9 to 23.9%; in test [4] it was 12.3%; in test [5], 14.8%; in test [6] it was 17.6%.

Turning to `O=C(NC[C@@H](O)C[C@@H](Cc1ccccc1)C(=O)N[C@H]1c2ccccc2C[C@H]1O)c1ccncc1`, the inhibition was 10.9% in test [1]; -8.8% in test [2]; 21% in test [4]; 19.2% in test [5]; 14.2% in test [6].

Turning to `CCNC(=O)[C@H](Cc1ccccc1)C[C@H](O)CNS(=O)(=O)c1ccc([N+](=O)[O-])cc1`, the inhibition in test [1] was 0.1%; in test [3], -9.25 to 15.2%; in test [4], -6.2%; in test [5] it was -0.4%; in test [6], -7.1%.

For the compound `CCNC(=O)[C@@H](Cc1ccccc1)C[C@H](O)CNS(=O)(=O)c1ccc([N+](=O)[O-])cc1`, the inhibition in test [1] is 6%; in test [2], -7.6%; in test [3] it was -10 to 14.9%; in test [5] it was -0.9%.

`O=C([C@H](Cc1ccccc1)C[C@H](O)CNS(=O)(=O)c1ccc([N+](=O)[O-])cc1)N1CCCCC1`: the inhibition was -2.8% in test [2], 0.5% in test [4], -4.8% in test [5] and -4.8% in test [6].

Regarding `O=C(NCc1ccc(F)cc1F)[C@H](Cc1ccccc1)C[C@H](O)CNS(=O)(=O)c1ccc([N+](=O)[O-])cc1`, the inhibition in test [2] is 30.8%; in test [4] it was 22.1 to 23.6%; in test [5], 7.2 to 22.1%; in test [6] it was 2.4%.

Take `C[C@H](CC(C)(C)C)NC(=O)[C@H](Cc1ccccc1)C[C@H](O)CNS(=O)(=O)c1ccc([N+](=O)[O-])cc1`: the inhibition is 3% in test [1]; -5.2 to 23.3% in test [3]; -0.1% in test [4]; 4.4% in test [5]; -7.9% in test [6].

As to `O=C(NC[C@@H](O)C[C@@H](Cc1ccccc1)C(=O)N[C@H]1c2ccccc2C[C@H]1O)c1cccc(CCl)c1`, the inhibition in test [1] was 5.7%; in test [3], -8.1 to 2.4%; in test [4], 15.1%; in test [5], 2.3%; in test [6], 0.5%.

On to `CCC(=O)Nc1ccc(S(=O)(=O)NC[C@@H](O)C[C@@H](Cc2ccccc2)C(=O)N[C@H]2c3ccccc3C[C@H]2O)cc1`, for which the inhibition was -1.2% in test [1]; -3.4 to 8.25% in test [3]; 26.9% in test [4]; 1.5% in test [5]; 0.6% in test [6].

Take `Cc1ccc([N+](=O)[O-])cc1S(=O)(=O)NC[C@@H](O)C[C@@H](Cc1ccccc1)C(=O)N[C@H]1c2ccccc2C[C@H]1O`: the inhibition was -3.8% in test [1]; -0.6% in test [2]; 18.3% in test [4]; 13.6% in test [5]; 10.9% in test [6].

Consider `O=C([C@H](Cc1ccccc1)C[C@H](O)CNS(=O)(=O)c1ccc([N+](=O)[O-])cc1)N1CCC(CO)CC1`, for which the inhibition in test [2] is -4.5%; in test [3] it was -8.4 to 0.85%; in test [4], 6.2%; in test [5], 4.4%; in test [6], 2.1%.

Consider `CC(C)C(=O)NC[C@@H](O)C[C@@H](Cc1ccccc1)C(=O)N[C@H]1c2ccccc2C[C@H]1O`, for which the inhibition in test [4] was -0.9%; in test [5], 2.6%; in test [6], 0.7%.

For the compound `O=C(N[C@H]1c2ccccc2C[C@H]1O)[C@H](Cc1ccccc1)C[C@H](O)CNS(=O)(=O)c1ccc(C(=O)N2CCCCC2)cc1`, the inhibition in test [3] is -6.85 to 0%; in test [4], -1.4%; in test [5], -7.3%; in test [6] it was -5.3%.

Regarding `CCN(CC)C(=O)[C@@H](Cc1ccccc1)C[C@H](O)CNS(=O)(=O)c1ccc([N+](=O)[O-])cc1`, the inhibition was 1.2% in test [1]; -2.7% in test [2]; -6.6 to -3.6% in test [3]; -8.4% in test [5]; 0.5% in test [6].

As to `CO[C@@H]1Cc2ccccc2[C@@H]1NC(=O)[C@H](Cc1ccccc1)C[C@H](O)CNS(=O)(=O)c1ccc([N+](=O)[O-])cc1`, the inhibition in test [2] was -10%; in test [3], -7.1 to -2.05%; in test [4], 5.9%; in test [5] it was 5.9%; in test [6] it was 15.7%.

As to `NC(=O)[C@H](Cc1ccccc1)C[C@H](O)CNS(=O)(=O)c1ccc([N+](=O)[O-])cc1`, the inhibition in test [3] was -6.5 to 10.4%; in test [4], 2.1%; in test [5], 3.6%; in test [6], 6.7%.

`O=C([C@@H](Cc1ccccc1)C[C@H](O)CNS(=O)(=O)c1ccc([N+](=O)[O-])cc1)N1CCOCC1`: the inhibition in test [2] was 0.3%; in test [3], 1.65 to 7%; in test [4], 3%; in test [6], -5.8%.

Regarding `O=C(CCCCBr)NC[C@@H](O)C[C@@H](Cc1ccccc1)C(=O)N[C@H]1c2ccccc2C[C@H]1O`, the inhibition in test [3] was -0.6 to 1.7%; in test [4], 9.4%; in test [5], 12.9%; in test [6], 11.7%.
